Laboratory results: patent US20180148418A1, “AMIDO-SUBSTITUTED CYCLOHEXANE DERIVATIVES” (Bayer Pharma Aktiengesellschaft, priority 2015, published 2018)

Assays:
[1] = test system: wildtype Wnt signaling cascade; assay: HEK293 TOP assay (Super TopFlash luciferase reporter, Wnt-3a stimulated); format: cell-based; settings: HEK293 TOP reporter cells, Wnt3a at EC50, 16 hours
Summary of the method: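 HEK293 cells stably carrying Super TopFlash (TOP) run in parallel with FOP cells, 10000/well plated 24 h ahead, stimulated with recombinant human Wnt-3a. Compounds tested 50 μM to 15 nM in 3.16-fold steps in CAFTY buffer pH 7.4 with 2 mM Ca^2+ and 0.01% BSA; luciferase read-out.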

[2] = biological target: T1, TNKS1 (Homo sapiens, UniProt O95271); assay: TNKS1 Assay B (auto-parsylation, [3H]-NAD+ SPA); format: biochemical; settings: 6 nM TNKS1, auto-parsylation, over night at room temperature
T1 construct: purchased BPS Bioscience, San Diego, USA 80579 (TNKS1 Histone Ribosylation Assay Kit)
T1 sequence (O95271 1-1327): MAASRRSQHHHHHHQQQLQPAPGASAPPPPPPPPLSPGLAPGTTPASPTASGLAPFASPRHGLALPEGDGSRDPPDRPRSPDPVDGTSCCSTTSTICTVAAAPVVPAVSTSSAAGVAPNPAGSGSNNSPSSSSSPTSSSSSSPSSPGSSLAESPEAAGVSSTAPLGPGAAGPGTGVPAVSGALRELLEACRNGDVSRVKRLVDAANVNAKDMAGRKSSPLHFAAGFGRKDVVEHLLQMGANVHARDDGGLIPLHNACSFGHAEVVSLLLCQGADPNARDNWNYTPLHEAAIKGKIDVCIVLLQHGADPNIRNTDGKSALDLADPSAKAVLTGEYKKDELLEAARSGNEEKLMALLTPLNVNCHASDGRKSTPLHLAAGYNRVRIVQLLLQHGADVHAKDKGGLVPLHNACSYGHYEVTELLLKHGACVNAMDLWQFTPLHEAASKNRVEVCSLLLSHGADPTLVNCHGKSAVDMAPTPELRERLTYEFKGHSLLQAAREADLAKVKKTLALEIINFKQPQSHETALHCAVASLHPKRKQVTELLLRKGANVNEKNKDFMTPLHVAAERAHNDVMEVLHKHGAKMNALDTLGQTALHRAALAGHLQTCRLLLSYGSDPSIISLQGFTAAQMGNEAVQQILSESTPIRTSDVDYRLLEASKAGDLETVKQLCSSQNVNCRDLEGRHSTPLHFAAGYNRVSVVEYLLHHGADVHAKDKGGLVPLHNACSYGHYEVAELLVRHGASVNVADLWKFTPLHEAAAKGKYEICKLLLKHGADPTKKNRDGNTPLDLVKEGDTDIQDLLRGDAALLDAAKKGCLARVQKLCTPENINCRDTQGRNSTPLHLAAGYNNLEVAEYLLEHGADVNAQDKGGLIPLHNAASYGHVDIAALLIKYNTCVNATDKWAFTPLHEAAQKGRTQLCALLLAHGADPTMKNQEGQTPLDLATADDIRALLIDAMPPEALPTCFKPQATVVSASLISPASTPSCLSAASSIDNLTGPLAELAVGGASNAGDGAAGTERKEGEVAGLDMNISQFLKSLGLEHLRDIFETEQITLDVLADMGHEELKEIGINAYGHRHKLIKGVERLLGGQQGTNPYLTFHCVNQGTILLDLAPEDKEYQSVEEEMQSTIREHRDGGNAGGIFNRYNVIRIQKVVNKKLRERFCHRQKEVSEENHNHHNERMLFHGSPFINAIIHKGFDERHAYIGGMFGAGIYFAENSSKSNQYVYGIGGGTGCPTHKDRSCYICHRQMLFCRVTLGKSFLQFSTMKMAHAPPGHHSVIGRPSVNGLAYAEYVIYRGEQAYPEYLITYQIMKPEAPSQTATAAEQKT
Description: The potency of selected compounds according to the invention was assessed applying a modified in vitro inhibition assay. Here, the TNKS1 catalyzed NAD^+-dependent ribosylation of the enzyme itself (auto-parsylation) was detected using [^3H]-NAD^+ as substrate and applying the scintillation proximity assay (SPA) method to detect tritium-labeled, parsylated TNKS1. The intensity of the readout signal is proportional to the incorporated [^3H]-NAD^+. Inhibition of TNKS1 leads to a decreased incorporation of [^3H]-NAD^+ and consequently to a lower readout signal intensity. The concentration of a test compound which inhibits the enzyme activity by 50% (corresponds to half of the normed readout signal intensity) is reported as IC50.
Protocol Auto-Parsylation Assay
The assay was conducted in a 96 well MTP format with the identical TNKS1 enzyme sample and NAD^+ sample as in the histone ribosylation assay with the following modifications: TNKS1 enzyme sample was diluted with a modified assay buffer (50 mM MES pH 7.0, 1 mM DTT, 0.01% Triton X-100) to a final concentration of 6 nM TNKS1 and 10×NAD^+ solution was diluted with the modified assay buffer (s. above) to a final 0.445×NAD^+ solution doped with 100 Bq/μl [^3H]-NAD^+[Catalog #NET443H050UC, Perkin Elmer, Waltham, Mass., USA]. Substrate solution (10 μl) was incubated with different test compound concentrations (2.5 ul in 10% DMSO in modified assay buffer) or control (2.5 ul 10% DMSO in modified assay buffer only) and enzyme (10 μl) over night at room temperature. Incorporated tritium was measured after addition of 50 μl SPA beads (1 mg/ml) [Catalog #RPNQ0095 20 mg/ml, Perkin Elmer, Waltham, Mass., USA; diluted 1:10 with Dulbecco's phosphate buffered saline, PBS Catalog #D8537, Sigma-Aldrich, Steinheim, Germany] and detection of the photon emission with a beta count plate reader [Wallac MicroBeta®, Perkin Elmer, Waltham, Mass., USA].

Row | SMILES | IC50 ([1]; Homo sapiens, HEK293, 16 h) [nM] | IC50 [2] [nM] | IC50 [1] [nM]
1 | COCC(C)NC(=O)c1nc[nH]c1C(=O)N[C@H]1CC[C@@]2(CCN(c3ccc(F)cc3Cl)C2=O)CC1 (mixture of isomers) [Example 164, N^5-[(trans)-2-(2-chloro-4-fluorophenyl)-1-oxo-2-azaspiro[4.5]dec-8-yl]-N^4-(1-methoxypropan-2-yl)-1H-imidazole-4,5-dicarboxamide] | 9.2 | 37 | 
2 | Cc1c(C(C)N(C)C)cnc2c(C(=O)N[C@H]3CC[C@H](C(=O)Nc4ccc(F)cc4Cl)CC3)cnn12 (single isomer, unassigned) [Example 56, N-{trans-4-[(2-chloro-4-fluorophenyl)carbamoyl]cyclohexyl}-6-[1-(dimethylamino)ethyl]-7-methylpyrazolo[1,5-a]pyrimidine-3-carboxamide] |  | 840 | 990
3 | Cc1c(C(C)N(C)C)cnc2c(C(=O)N[C@H]3CC[C@H](C(=O)Nc4ccc(F)cc4Cl)CC3)cnn12 (single isomer, unassigned) [Example 57, N-{trans-4-[(2-chloro-4-fluorophenyl)carbamoyl]cyclohexyl}-6-[1-(dimethylamino)ethyl]-7-methylpyrazolo[1,5-a]pyrimidine-3-carboxamide] |  | 440 | 310
4 | CNC(=O)c1nc[nH]c1C(=O)N[C@H]1CC[C@H](C(=O)Nc2cc(F)c(F)cc2Cl)CC1 [Example 3, N^5-{trans-4-[(2-chloro-4,5-difluorophenyl)carbamoyl]cyclohexyl}-N^4-methyl-1H-imidazole-4,5-dicarboxamide] | 13 | 10 | 
5 | O=C(NCCN1CCCCC1)c1nc[nH]c1C(=O)N[C@H]1CC[C@H](C(=O)Nc2cc(F)c(F)cc2Cl)CC1 [Example 4, N^5-{trans-4-[(2-chloro-4,5-difluorophenyl)carbamoyl]cyclohexyl}-N^4-[2-(piperidin-1-yl)ethyl]-1H-imidazole-4,5-dicarboxamide] | 10 | 2.2 | 
6 | CNC(=O)c1nc[nH]c1C(=O)N[C@H]1CC[C@H](C(=O)Nc2cc(OC)c(OC)cc2Cl)CC1 [Example 5, N^5-{trans-4-[(2-chloro-4,5-dimethoxyphenyl)carbamoyl]cyclohexyl}-N^4-methyl-1H-imidazole-4,5-dicarboxamide] | 190 | 150 | 
7 | CNC(=O)c1nc[nH]c1C(=O)N[C@H]1CC[C@H](C(=O)Nc2c(F)cc(F)cc2Cl)CC1 [Example 6, N^5-{trans-4-[(2-chloro-4,6-difluorophenyl)carbamoyl]cyclohexyl}-N^4-methyl-1H-imidazole-4,5-dicarboxamide] | 55 | 77 | 
8 | CNC(=O)c1nc[nH]c1C(=O)N[C@H]1CC[C@H](C(=O)Nc2ccc(F)cc2Br)CC1 [Example 7, N^5-{trans-4-[(2-bromo-4-fluorophenyl)carbamoyl]cyclohexyl}-N^4-methyl-1H-imidazole-4,5-dicarboxamide] | 30 | 24 | 
9 | CNC(=O)c1nc[nH]c1C(=O)N[C@H]1CC[C@H](C(=O)Nc2ccc(F)cc2)CC1 [Example 8, N^5-{trans-4-[(4-fluorophenyl)carbamoyl]cyclohexyl}-N^4-methyl-1H-imidazole-4,5-dicarboxamide] | 2100 | 4100 | 
10 | CNC(=O)c1nc[nH]c1C(=O)N[C@H]1CC[C@H](C(=O)Nc2ccc(C)cc2Cl)CC1 [Example 9, N^5-{trans-4-[(2-chloro-4-methylphenyl)carbamoyl]cyclohexyl}-N^4-methyl-1H-imidazole-4,5-dicarboxamide] | 180 | 85 | 
11 | CNC(=O)c1[nH]cnc1C(=O)NC1CCC(C(=O)Nc2ccc(F)cc2Cl)CC1OC (stereo not drawn) [Example 36, N^4-{(1α,2β,4β)-4-[(2-chloro-4-fluorophenyl)carbamoyl]-2-methoxycyclohexyl}-N^5-methyl-1H-imidazole-4,5-dicarboxamide] |  | > 10000 | 4900
12 | CNC(=O)c1[nH]cnc1C(=O)NC1CCC(C(=O)Nc2ccc(F)cc2Cl)CC1OC (stereo not drawn) [Example 37, N^4-{(1α,2β,4β)-4-[(2-chloro-4-fluorophenyl)carbamoyl]-2-methoxycyclohexyl}-N^5-methyl-1H-imidazole-4,5-dicarboxamide] |  | > 10000 | 43000
13 | O=C(NCCC1CC1)c1nc[nH]c1C(=O)N[C@H]1CC[C@H](C(=O)Nc2cc(N3CCOCC3)ccc2Cl)CC1 [Example 93, N^5-(trans-4-{[2-chloro-5-(morpholin-4-yl)phenyl]carbamoyl}cyclohexyl)-N^4-(2-cyclopropylethyl)-1H-imidazole-4,5-dicarboxamide] | 1500 | 790 | 
14 | CC(C)(O)CNC(=O)c1nc[nH]c1C(=O)N[C@H]1CC[C@H](C(=O)Nc2cc(N3CCOCC3)ccc2Cl)CC1 [Example 94, N^5-(trans-4-{[2-chloro-5-(morpholin-4-yl)phenyl]carbamoyl}cyclohexyl)-N^4-(2-hydroxy-2-methylpropyl)-1H-imidazole-4,5-dicarboxamide] | 610 | 1300 | 
15 | O=C(NCC(F)(F)F)c1nc[nH]c1C(=O)N[C@H]1CC[C@H](C(=O)Nc2cc(N3CCOCC3)ccc2Cl)CC1 [Example 95, N^5-(trans-4-{[2-chloro-5-(morpholin-4-yl)phenyl]carbamoyl}cyclohexyl)-N^4-(2,2,2-trifluoroethyl)-1H-imidazole-4,5-dicarboxamide] | 2100 | 2400 | 
16 | CNC(=O)c1nc[nH]c1C(=O)N[C@H]1CC[C@H](C(=O)Nc2cnccc2Cl)CC1 [Example 96, N^5-{trans-4-[(4-chloropyridin-3-yl)carbamoyl]cyclohexyl}-N^4-methyl-1H-imidazole-4,5-dicarboxamide] | 22 | 40 | 
17 | O=C(NCC1CCCO1)c1nc[nH]c1C(=O)N[C@H]1CC[C@H](C(=O)Nc2cnccc2Cl)CC1 (stereo partly drawn) [Example 97, N^5-{trans-4-[(4-chloropyridin-3-yl)carbamoyl]cyclohexyl}-N^4-(tetrahydrofuran-2-ylmethyl)-1H-imidazole-4,5-dicarboxamide] | 34 | 45 | 
18 | COC(C)(C)CNC(=O)c1nc[nH]c1C(=O)N[C@H]1CC[C@H](C(=O)Nc2cnccc2Cl)CC1 [Example 98, N^5-{trans-4-[(4-chloropyridin-3-yl)carbamoyl]cyclohexyl}-N^4-(2-methoxy-2-methylpropyl)-1H-imidazole-4,5-dicarboxamide] | 570 | 54 | 
